Experimental data as given in patent US7973080B2 (Ambria Dermatology AB, priority 2003, dated 2011).

Tests used:
S. pyogenes, group A = assay: MIC by standard blood agar dilution technique
Text: (§1) The following bacteria were investigated: methicillin-resistant Staphylococcus aureus (MSRA), fucidic acid-resistant S. aureus, non-resistant S. pyogenes, coagulation-negative staphylococci (for resistance, see Table 1 below) vancomycin-resistant enterococci (Enterococcus CCUG van A and van B), non-resistant Escherichia coli, Acinetobacter resistant against cefadroxil, nitrofurantin, mecillinam, Serratia maltophilia resistant against most types of antibiotics, Enterobacter (for resistance, see Table 1 below; additionally resistant against cefadroxil and nitrofurantin), non-resistant α-streptococci, non-resistant Streptococcus Group G, Pseudomonas aeruginosa (for resistance, see Table 2 below). Inocula of 10^3 and 10^5 bacteria were used.

S. maltophilia = assay: MIC by standard blood agar dilution technique; settings: inoculate size 10^3
Text: as §1

## OCCCCCO [pentane-1,5-diol]
S. pyogenes, group A; group A 912 × 1090, inoculate size 10^3
  MIC (% by weight of pentane-1,5-diol): 7.5 % by weight
S. pyogenes, group A; group A 912 × 1115, inoculate size 10^3
  MIC (% by weight of pentane-1,5-diol): 7.5 % by weight
S. pyogenes, group A; group A 912 × 1119, inoculate size 10^3
  MIC (% by weight of pentane-1,5-diol): 7.5 % by weight
S. pyogenes, group A; group A 912 × 1121, inoculate size 10^3
  MIC (% by weight of pentane-1,5-diol): 7.5 % by weight
S. pyogenes, group A; group A 912 × 1131, inoculate size 10^3
  MIC (% by weight of pentane-1,5-diol): 7.5 % by weight
S. maltophilia; S. maltophilia 515 × 695
  MIC (% by weight of pentane-1,5-diol): 5.0 % by weight
S. maltophilia; S. maltophilia 515 × 1269
  MIC (% by weight of pentane-1,5-diol): 2.5 % by weight
S. maltophilia; S. maltophilia 516 × 679
  MIC (% by weight of pentane-1,5-diol): 5.0 % by weight
S. maltophilia; S. maltophilia 900 × 1230
  MIC (% by weight of pentane-1,5-diol): 5.0 % by weight
S. maltophilia; S. maltophilia 921 × 16157
  MIC (% by weight of pentane-1,5-diol): 5.0 % by weight
